Earlier results in US20250367228A1, “FORMULATIONS FOR BOOSTING NAD+ USING MULTIPLE BIOLOGICAL PATHWAYS CONCURRENTLY TO OVERCOME ENZYMATIC DEGRADATION AND IMPROVE DOWNSTREAM BENEFITS” (PROHEALTH, priority 2023, published 2025).

How the values were obtained:
[1] = biological target: T1, CD38 (Homo sapiens, UniProt P28907)
T1 sequence (P28907 1-300): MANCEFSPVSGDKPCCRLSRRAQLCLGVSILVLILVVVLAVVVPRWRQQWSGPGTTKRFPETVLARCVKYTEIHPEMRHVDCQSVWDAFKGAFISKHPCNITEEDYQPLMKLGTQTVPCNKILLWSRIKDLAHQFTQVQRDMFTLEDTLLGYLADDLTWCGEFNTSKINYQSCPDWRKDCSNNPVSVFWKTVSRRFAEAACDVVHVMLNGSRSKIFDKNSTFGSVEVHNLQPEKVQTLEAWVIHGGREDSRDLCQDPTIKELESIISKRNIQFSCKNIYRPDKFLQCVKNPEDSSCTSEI

[2] = system: NAD+ blood concentrations; conditions: 1000 mg/day of NR, elderly subjects

Row | Compound | inhibition of CD38 [1] | increase of NAD+ blood concentrations [2]
1 | O=c1cc(-c2ccc(O)cc2)oc2cc(O)cc(O)c12 [apigenin] | inhibited | 
2 | O=c1c(O)c(-c2ccc(O)c(O)c2)oc2cc(O)cc(O)c12 [quercetin] | inhibited | 
3 | NC(=O)c1ccc[n+]([C@@H]2O[C@H](CO)[C@@H](O)[C@H]2O)c1 [NR, Nicotinamide riboside] |  | two-fold
